In assay [1] the test system is CDKL5-deficient organoids. In words: Network activity of organoids derived from patient iPSCs. It is filed as cell-based, human. The note with it: CDKL5-deficient organoids treated with harmine. As to the method: Another set of experiments was conducted using organoids derived from patient-induced pluripotent stem cells (iPSCs). Organoids are three-dimensional structures created from stem cells that closely resemble specific organs or tissues in terms of cellular composition, architecture, and function. These structures are widely used in biomedical research because they replicate the complexity of real organs, including their multiple cell types, tissue-specific structures, and the functions of the organ being modeled. In this study, organoids were generated to mimic the neuronal network of patients with CDKL5 deficiency disorder (CDD), providing a model system to explore the underlying mechanisms of the disorder and test potential therapeutic approaches.
Increased network excitability refers to an overactive state where neurons fire excessively, a characteristic associated with the seizure activity observed in CDD patients. Altered synchrony in the neuronal network reflects disrupted communication between neurons, contributing to cognitive impairments.

Assay [2] concerns proinflammatory cytokines and chemokines. As to the kind of experiment: Production and release of proinflammatory cytokines and chemokines.
Another assay has as its system microglial cells. In words: Microglial activity. An excerpt:
This activation is associated with the release of proinflammatory cytokines, which promote neuroinflammatory processes.

A further assay has as its target T1, DYRK1A (Homo sapiens, UniProt Q13627).
T1 construct: endogenous in cells; host or cells: CDKL5-deficient organoids
In words: DYRK1A activity in harmine-treated organoids. Type of assay: cell-based. An excerpt:
DYRK1A is a kinase that adds phosphate groups to proteins, thereby regulating their function. In CDKL5 deficiency, the lack of CDKL5-mediated regulation leads to overactivation of DYRK1A, resulting in dysregulated synaptic signaling and impaired neuronal communication. Harmine, by selectively inhibiting DYRK1A, restores the phosphorylation balance at the synapse, preventing over-phosphorylation of critical synaptic proteins. This modulation of synaptic signaling pathways by harmine contributes to the restoration of neuronal connectivity and the normalization of network activity in the treated organoids.

A further assay deals with CDKL5 knockout mice. As to the kind of experiment: In vivo studies in CDKL5 knockout mice: synaptic transmission and neuronal connectivity. As to the method:
This dosing regimen may serve as a reference point for establishing human doses. Extrapolating from these animal models, an initial dosing range for children of 1 to 2 mg/kg per day. This range can be adjusted depending on the individual's size and response, with a narrower range of 1.5 to 2 mg/kg per day for more precise dosing or even tighter to 1.75 to 2 mg/kg per day in specific cases. For broader clinical flexibility, a starting range of 0.5 to 3 mg/kg per day might be considered for pediatric populations, with adjustments based on individual tolerance and therapeutic outcomes.
In in vivo studies, animal models of neurodevelopmental disorders, including CDKL5 knockout mice, have been treated with liquiritin to assess its impact on synaptic transmission and neuronal connectivity.

The next assay has as its system GABA receptor. The settings on record: in vitro; cited from earlier work.
For assay [3], the system named is oxidative damage of neurons. The note with it: cited from earlier work.
A further assay concerns the target T2, MAO-B (Homo sapiens, UniProt P27338).
T2 sequence (P27338 1-520): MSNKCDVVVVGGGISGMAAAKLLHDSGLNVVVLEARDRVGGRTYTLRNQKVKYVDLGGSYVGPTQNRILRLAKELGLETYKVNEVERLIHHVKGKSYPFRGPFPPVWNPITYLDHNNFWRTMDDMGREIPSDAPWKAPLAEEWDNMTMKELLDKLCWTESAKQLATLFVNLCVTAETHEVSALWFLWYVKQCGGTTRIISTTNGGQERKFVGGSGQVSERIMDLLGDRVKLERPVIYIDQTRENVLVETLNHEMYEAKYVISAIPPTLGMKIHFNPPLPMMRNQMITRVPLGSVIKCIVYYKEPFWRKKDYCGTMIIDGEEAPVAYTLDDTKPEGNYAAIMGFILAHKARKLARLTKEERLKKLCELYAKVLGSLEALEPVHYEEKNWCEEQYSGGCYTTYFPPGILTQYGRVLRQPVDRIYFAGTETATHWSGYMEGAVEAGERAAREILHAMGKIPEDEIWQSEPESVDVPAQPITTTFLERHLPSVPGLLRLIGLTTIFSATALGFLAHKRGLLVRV
As to the kind of experiment: MAO-B inhibitory activity. It is filed as biochemical. From the text: Though its MAO-B inhibitory activity is not as potent as that of other compounds such as safinamide, its ability to mildly modulate neurotransmitter levels, particularly dopamine and serotonin, may be beneficial in improving synaptic communication in CDD. In addition to its interaction with the monoamine pathways, liquiritin's anti-inflammatory properties may aid in reducing the neuroinflammation often observed in CDKL5-deficient patients. By targeting both neurotransmitter regulation and inflammatory processes, liquiritin offers a dual mechanism that may be effective in restoring synaptic balance.

In the next assay the test system is EB2 phosphorylation. In words: EB2 phosphorylation in CDKL5 knockout (KO) mouse model. Type of assay: in vivo. The note with it: knockout (KO) male and Het female mice; compared with vehicle (drinking water). As to the method: In this context, EB2 phosphorylation acts as a functional molecular readout for the disease-modifying potential of small molecules, such as monoamine oxidase inhibitors (MAO-Is). When studying the efficacy of potential therapies for CDD, the measurement of EB2 phosphorylation levels can provide insight into whether the treatment is capable of compensating for the dysfunctional CDKL5 protein.
To evaluate the impact of MAO-Is on EB2 phosphorylation, an in vivo study was conducted using a well-established CDKL5 knockout (KO) mouse model, specifically the B6.129(FVB)-Cdk15tm1.1Joez/J strain from Jackson Laboratories. […] These mice provide a relevant model for testing how pharmacological agents such as MAO-Is can modulate neuronal activity and potentially restore normal function in the absence of CDKL5.
The increase in EB2 phosphorylation in these models provides compelling evidence that MAO-Is offer a disease-modifying therapeutic approach for patients with CDKL5 deficiency disorder, by targeting key molecular pathways involved in synaptic transmission and brain development.

Assay [4] relates to seizures in animal models. The note with it: cited from earlier work.

Molecules are shown by their SMILES.

For the compound `COc1ccc2c(c1)[nH]c1c(C)nccc12` [harmine], in assay [1], the burst firing patterns result was “normalized the burst firing patterns”, the network excitability result is on record as “reduced network excitability” and the neuronal synchrony result is “improved neuronal synchrony”. Besides, the “production and release of proinflammatory cytokines and chemokines” value in assay [2] was “inhibits the production and release of proinflammatory cytokines and chemokines”. Further, in the assay with microglial cells, the “microglial activity (overactivation)” value is on record as “reducing their overactivation”. For the same compound, on DYRK1A, the DYRK1A activity entry is recorded as “modulation of DYRK1A activity”. Moreover, in the assay on CDKL5 knockout mice (30 mg/kg intraperitoneally, 5 days on, 2 days off, another 5-day cycle), the “efficacy of the dosing regimen” value is given as “has shown efficacy”. Moreover, in the assay with CDKL5 knockout mice (CDKL5 knockout mice), the neurological outcomes is recorded as “improved neurological outcomes”; the “synaptic transmission and neuronal connectivity” value was “significant improvements in synaptic transmission and neuronal connectivity”. In the assay on GABA receptor, the GABA receptor activity entry is on record as “increases GABA receptor activity”.

With `O=C1C[C@@H](c2ccc(O[C@@H]3O[C@H](CO)[C@@H](O)[C@H](O)[C@H]3O)cc2)Oc2cc(O)ccc21` [liquiritin], in [3], the antioxidant activity entry is “demonstrated antioxidant activity”. Further, on MAO-B, the MAO-B inhibitory activity entry is “weak MAO-B inhibitor”. The synaptic function entry with CDKL5 knockout mice (animal models including CDKL5 knockout mice) is on record as “moderate improvements in synaptic function”. In the assay with EB2 phosphorylation, the EB2 phosphorylation levels entry is “effective in increasing EB2 phosphorylation levels”.

On to `C[C@H](NCc1ccc(OCc2cccc(F)c2)cc1)C(N)=O` [safinamide], for which, in assay [4], the anticonvulsant properties entry was “suppress seizures and provide neuroprotective effects”.

(Values after patent US20250127766A1, “METHODS AND COMPOSITIONS FOR TREATING CDKL5 DISORDER USING MONOAMINE OXIDASE INHIBITORS” (priority 2023, published 2025).)
